Experimental data taken from PMC12455572, “Amphipathic Proline-Rich Cell Penetrating Peptides for Targeting Mitochondria” (ACS Chemical Biology, 2025).
“Also recorded” adds a separate entry of the source. Where a SMILES comes first, the peptide text is derived from it. [ ]: non-standard residue; d: D form. The star is where a group is joined. 5FAM = O=C1OC2(c3ccc(O)cc3Oc3cc(O)ccc32)c2ccc(C(=O)*)cc21; Pro(cis-4-guanidino) = NC(N)=N[C@@H]1CN[C@H](C(=O)O)C1; Cha = N[C@@H](CC1CCCCC1)C(=O)O; Ahx = NCCCCCC(=O)O

Tested on: MCF-7 cells
Test: Confocal microscopy of live cells: cellular uptake and intracellular localization
Format: cell-based
Settings: live MCF-7 cells; for Cellular uptake and intracellular localization (confocal microscopy): 1 h, 37 °C, DMEM + 1% FBS; for Intracellular localization after 24 h rest (confocal microscopy, Figure S7): 1 h incubation at 37 °C, washing, 24 h rest in DMEM + 10 % FBS, concentration not given
Method: MitoTracker Deep Red was used as a counter stain for mitochondria and Hoechst 33342 for the nucleus. […] To explore whether PPII-helicity is key for mitochondrial localization, we prepared peptide CF-Ahx-(ChaRR)3-NH2 with Arg instead of Gup residues. This control peptide features a flexible conformation as judged by CD spectroscopy (Figure S1B). […] These findings show the importance of the secondary structure of the CPP for subcellular organelle localization.
MCF-7 cells were seeded in a 8-μwell Ibidi plate at 25′000 cells/well in DMEM (100 μL, 10% FCS) and allowed to adhere overnight. The medium was removed, the cells were washed with PBS (200 μL, 1x) and incubated with the peptide solution at 20 μM, 10 μM, 5 μM or 2.5 μM in DMEM (200 μL, 1% FCS) for 1 h at 37 °C. The medium was removed, and the cells were washed with PBS (200 μL, 2x). MitoTracker Deep Red was distributed at 20 nM in DMEM (200 μL, 1% FBS) and the cells were incubated at 37 °C for 25 min. The medium was removed, and the cells were washed with PBS (200 μL, 2x). Hoechst333342 was distributed at 2 μM in DMEM (200 μL, 1% FBS) and the cells were incubated at 37 °C for 5 min. The cells were washed with PBS (200 μL, 2x), and FluoroBrite medium (200 μL) was added. The live cells were monitored on the confocal microscope at 37 °C, 5% CO2.
For the cells subjected to a 24 h rest period, the FluoroBrite medium was exchanged for DMEM (200 μL, 10% FBS) after the initial imaging, and the cells were kept in this medium for 24 h. The culture medium was then exchanged for FluoroBrite DMEM, and the cells were imaged again.
Fluorescence images of cells were collected using a Nikon Eclipse T1 (inverse) microscope equipped with a Yokogawa Confocal Scanner Unit CSU-W1-T2, containing a spinning disk (50 µm). The microscope is equipped with two EMCCD Andor iXon Ultra cameras. Emission in the blue channel (405 nm) was filtered with a 450/50 bandpass filter, emission in the green channel (488 nm) was filtered with a 525/50 bandpass, and the emission in the red channel (641 nm) was filtered with a 708/75 bandpass filter. Fluorescence images were obtained using an oil-immersion objective with a magnification of 100 × 1.4 CFI Plan Apo Oil.
Each experiment was repeated at least three times. The images acquired were adjusted using ImageJ2 software. Correlation coefficients were determined on entire images using JaCOP plugin.1 […]
MCF-7 cells were seeded in a 8-µwell Ibidi plate at 25’000 cells/well in DMEM (100 µL, 10% FCS) and allowed to adhere overnight. The medium was removed. The cells were washed with PBS (200 µL, 1x) and incubated with the peptide solution at 20 µM, 10 µM, 5 µM, or 2.5 µM in DMEM (200 µL, 1% FCS) for 1 h at 37 °C. The medium was removed, and the cells were washed with PBS (200 µL, 2x).
For imaging of mitochondria, MitoTracker Deep Red was added as described in the manuscript. For imaging of endosomes/lysosomes, Ly s o Tr a c k e r Deep Red was added (200 µL, 20 nM in DMEM, 1% FBS) followed by incubation of the cells at 37 °C for 25 min. The medium was removed, and the cells were washed with PBS (200 µL, 2x). For imaging of the nucleus, Hoechst333342 was added at (200 µL, 2 µM in DMEM, 1% FBS) followed by incubation of the cells at 37 °C for 5 min. The cells were washed with PBS (200 µL, 2x), and FluoroBrite medium (200 µL) was added. The live cells were monitored on the confocal microscope […]
MCF-7 cells were seeded in a 96-well plate at 7’500 cells/well in cell culture medium (200 µL, 10% FCS), and allowed to adhere overnight. The medium was removed, the cells were washed with PBS (100 µL, 1x) and incubated with the peptide solution at 20 µM, 10 µM, 5 µM, or 2.5 µM in DMEM (200 µL, 1% FCS) for 1 h at 37 °C. The medium was removed, and the cells were washed with PBS (100 µL, 1x). The MTT solution in DMEM (110 µL, 1.2 mM, 1% FBS) was added. The cells were incubated for 3 h at 37 °C. The […]

[1] = concentration not stated at the place or given within the value

Row | Compound | Cellular uptake and intracellular localization (confocal microscopy) (5 μM peptide) | Cellular uptake and intracellular localization (confocal microscopy) [1] | Intracellular localization after 24 h rest (confocal microscopy, Figure S7) | Cellular uptake and intracellular localization (confocal microscopy) (20 μM peptide) | Cellular uptake and intracellular localization (confocal microscopy) (10 μM peptide, MitoTracker Deep Red and Hoechst 33342 counterstain)
1 | N=C(N)N[C@H]1C[C@@H](C(=O)N2C[C@@H](NC(=N)N)C[C@H]2C(=O)N[C@@H](CC2CCCCC2)C(=O)N2C[C@@H](NC(=N)N)C[C@H]2C(=O)N2C[C@@H](NC(=N)N)C[C@H]2C(=O)N[C@@H](CC2CCCCC2)C(=O)N2C[C@@H](NC(=N)N)C[C@H]2C(=O)N2C[C@@H](NC(=N)N)C[C@H]2C(=O)N[C@@H](CC2CCCCC2)C(N)=O)N(C(=O)[C@H](CC2CCCCC2)NC(=O)CCCCCNC(=O)c2ccc3c(c2)C(=O)OC32c3ccc(O)cc3Oc3cc(O)ccc32)C1 [(ChaZZ)3-Cha, CF-Ahx-(ChaZZ)3-Cha-NH2] ({5FAM-Ahx}-[Cha][Pro(cis-4-guanidino)][Pro(cis-4-guanidino)][Cha][Pro(cis-4-guanidino)][Pro(cis-4-guanidino)][Cha][Pro(cis-4-guanidino)][Pro(cis-4-guanidino)][Cha]-NH2) | intracellular localization | localized in mitochondria, endosomes, and the plasma membrane; also recorded: localized in the mitochondria and not the nucleus but was also trapped in endosomes | localized predominantly in the mitochondria |  | 
2 | CF-Ahx-(ChaZZ)2-Cha-NH2 |  | localized in mitochondria and the cytoplasm | localized in the cytoplasm as punctuated fluorescence and remains slightly in the mitochondria | strong mitochondrial colocalization at 20 μM (Figure D) with limited endosomal entrapment | 
3 | CF-Ahx-(ChaZZ)3-NH2 | low uptake; also recorded: no fluorescence was visible; also recorded: minimal fluorescence | localized in the cytoplasm, the nucleoli, and the mitochondria at concentrations of 10 μM and higher | localized predominantly in the mitochondria |  | localizes in the mitochondria; also recorded: localized in the mitochondria as well as in the cytoplasm and the nucleoli
